From patent US20240208957A1, “TRIAZINE DERIVATIVE AS REVERSIBLE AND IRREVERSIBLE COVALENT INHIBITORS OF PI3K” (UNIVERSITÄT BASEL, priority 2021, published 2024)
Where two headings read alike, the source gives them in different places.

How the values were obtained:
[1] = target: p110α (PI3Kα) (Homo sapiens, UniProt P42336); assay: LanthaScreen determination of kinetic constants (kinact, Ki) for p110α; format: binding; settings: for Ki: dissociation constant of the first reversible binding, mean of 3; for kinact: read-out: kinact PI3Kα;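 for all read-outs here: covalent inhibition constants for p110α come from LanthaScreen data, fitted globally by numerical integration in KinTek Global Kinetic Explorer software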
Procedure: Apparent dissociation constants of compounds [Ki(app)] for p110α were determined by LanthaScreen Technology (Life Technologies), as described in Ref.^21.
Maximum potential rate of covalent bond formation (Kinact) and dissociation constant of the first reversible binding (Ki) of compounds for p110α were determined by LanthaScreen Technology (Life Technologies). The calculation of kinetic parameters was carried out through global fitting for numerical integration by using KinTek Global Kinetic Explorer modelling software^22-27.

[2] = tested on: pSer473 of PKB/Akt in SKOV3 cells; assay: In-Cell Western cellular PI3K signaling, pSer473 of PKB/Akt in SKOV3 cells; format: cell-based; settings: Homo sapiens
Procedure: Protein phosphorylation was detected as follows: pSer473 of PKB/Akt with rabbit polyclonal antibody from Cell Signaling Technology (CST) (#4058) by In-Cell Western assays, where 1.2×10^4 SKOV3 cells/well in 96-well plates were plated (Cell Carrier, PerkinElmer) for 24 hours (37° C., 5% CO2), as described in Ref.^21.

[3] = SK-OV-3, SKOV3 cells, mean of 2 or 3 independent measurements, read-out: IC50 pPKB (S473) SKOV3
[4] = mean of 3 independent measurements, global fitting with KinTek
[5] = SK-OV-3, read-out: IC50 pPKB (S473) SKOV3

Sequence of p110α (PI3Kα) (P42336 whole entry): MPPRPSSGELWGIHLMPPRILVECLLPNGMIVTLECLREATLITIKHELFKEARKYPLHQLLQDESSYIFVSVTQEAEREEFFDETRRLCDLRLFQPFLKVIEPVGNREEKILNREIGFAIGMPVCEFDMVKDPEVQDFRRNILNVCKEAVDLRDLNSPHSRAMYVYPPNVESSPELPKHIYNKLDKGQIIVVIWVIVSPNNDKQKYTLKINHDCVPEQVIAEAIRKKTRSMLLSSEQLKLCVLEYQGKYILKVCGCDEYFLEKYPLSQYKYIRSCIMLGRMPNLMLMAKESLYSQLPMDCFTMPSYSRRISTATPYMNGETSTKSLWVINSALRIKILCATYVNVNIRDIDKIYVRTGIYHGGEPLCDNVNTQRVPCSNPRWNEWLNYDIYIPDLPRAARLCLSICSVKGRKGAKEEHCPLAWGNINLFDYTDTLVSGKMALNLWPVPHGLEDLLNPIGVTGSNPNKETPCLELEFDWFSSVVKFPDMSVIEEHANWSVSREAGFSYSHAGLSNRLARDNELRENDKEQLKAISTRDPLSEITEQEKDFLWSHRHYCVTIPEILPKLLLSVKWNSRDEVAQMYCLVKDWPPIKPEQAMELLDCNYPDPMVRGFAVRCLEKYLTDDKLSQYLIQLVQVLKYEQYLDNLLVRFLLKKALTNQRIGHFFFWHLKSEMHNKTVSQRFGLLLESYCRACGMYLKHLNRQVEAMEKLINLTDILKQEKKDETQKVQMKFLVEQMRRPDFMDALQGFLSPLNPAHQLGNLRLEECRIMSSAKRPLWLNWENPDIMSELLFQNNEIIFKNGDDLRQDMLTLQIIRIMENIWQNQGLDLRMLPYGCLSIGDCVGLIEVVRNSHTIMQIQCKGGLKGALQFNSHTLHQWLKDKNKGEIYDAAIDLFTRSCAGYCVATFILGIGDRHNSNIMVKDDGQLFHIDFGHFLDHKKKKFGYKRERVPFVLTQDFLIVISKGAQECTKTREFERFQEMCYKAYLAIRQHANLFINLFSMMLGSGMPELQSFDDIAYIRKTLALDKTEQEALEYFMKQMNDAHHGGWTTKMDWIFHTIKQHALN
Sequence of p110α (PI3Kα) (P27986 whole entry partner): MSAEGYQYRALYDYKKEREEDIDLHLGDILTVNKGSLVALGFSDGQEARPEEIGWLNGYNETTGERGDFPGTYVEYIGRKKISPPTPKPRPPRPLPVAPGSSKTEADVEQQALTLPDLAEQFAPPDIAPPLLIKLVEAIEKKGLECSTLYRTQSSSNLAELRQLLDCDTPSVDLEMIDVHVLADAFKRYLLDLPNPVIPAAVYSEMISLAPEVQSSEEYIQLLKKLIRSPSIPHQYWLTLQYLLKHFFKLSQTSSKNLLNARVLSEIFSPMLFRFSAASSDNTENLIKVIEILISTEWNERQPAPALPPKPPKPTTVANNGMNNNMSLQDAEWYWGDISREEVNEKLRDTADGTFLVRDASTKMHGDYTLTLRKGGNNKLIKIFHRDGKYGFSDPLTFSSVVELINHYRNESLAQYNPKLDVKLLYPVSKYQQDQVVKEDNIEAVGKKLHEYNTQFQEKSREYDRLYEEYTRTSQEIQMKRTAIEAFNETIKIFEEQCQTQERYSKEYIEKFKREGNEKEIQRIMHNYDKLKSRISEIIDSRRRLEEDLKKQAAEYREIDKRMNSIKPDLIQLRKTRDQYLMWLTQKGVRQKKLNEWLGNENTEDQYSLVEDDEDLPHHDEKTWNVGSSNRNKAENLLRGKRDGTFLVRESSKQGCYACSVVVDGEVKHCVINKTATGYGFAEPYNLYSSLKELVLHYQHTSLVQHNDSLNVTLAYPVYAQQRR

| SMILES | Ki [1] | IC50 [2, 3] | kinact/KI ([1]; PI3Kα, read-out: kinact/Ki) | kinact [1, 4] | kinact/KI [1] | kinact [1] | IC50 [2, 5] |
| --- | --- | --- | --- | --- | --- | --- | --- |
| Nc1ncc(-c2nc(N3CCOCC3)nc(N3CCN(C(=O)COC[C@H]4CCCN(C(=O)/C=C/CF)C4)CC3)n2)c(C(F)F)n1 [Compound 14, (S,E)-1-(3-((2-(4-(4-(2-amino-4-(difluoromethyl)pyrimidin-5-yl)-6-morpholino-1,3,5-triazin-2-yl)piperazin-1-yl)-2-oxoethoxy)methyl)piperidin-1-yl)-4-fluorobut-2-en-1-one] | 0.00191 µM | 0.0222 µM | – | – | – | – | – |
| C=C(F)C(=O)N1CCC[C@@H](COCC(=O)N2CCN(c3nc(-c4cnc(N)nc4C(F)F)nc(N4CCOCC4)n3)CC2)C1 [Compound 11, (R)-1-(3-((2-(4-(4-(2-amino-4-(difluoromethyl)pyrimidin-5-yl)-6-morpholino-1,3,5-triazin-2-yl)piperazin-1-yl)-2-oxoethoxy)methyl)piperidin-1-yl)-2-fluoroprop-2-en-1-one] | 0.00185 µM | 0.0199 µM | – | – | – | – | – |
| C[C@H]1COCCN1c1nc(-c2cnc(N)nc2C(F)F)nc(N2CCN(C(=O)COC[C@@H]3CN(C(=O)/C(C#N)=C\C4CC4)CCO3)CC2)n1 [Compound 43, (Z)-2-((S)-2-((2-(4-(4-(2-amino-4-(difluoromethyl)pyrimidin-5-yl)-6-((S)-3-methylmorpholino)-1,3,5-triazin-2-yl)piperazin-1-yl)-2-oxoethoxy)methyl)morpholine-4-carbonyl)-3-cyclopropylacrylonitrile] | 0.0138 µM | – | 1.04e+06 M⁻¹ s⁻¹ | 0.0143 s⁻¹ | – | – | – |
| Nc1ncc(-c2nc(N3CCOCC3)nc(N3CCN(C(=O)COC[C@@H]4CCCN(C(=O)/C=C/CF)C4)CC3)n2)c(C(F)F)n1 [Compound 13, (R,E)-1-(3-((2-(4-(4-(2-amino-4-(difluoromethyl)pyrimidin-5-yl)-6-morpholino-1,3,5-triazin-2-yl)piperazin-1-yl)-2-oxoethoxy)methyl)piperidin-1-yl)-4-fluorobut-2-en-1-one] | – | 0.018 µM | – | – | – | – | – |
| C=CC(=O)N1CC(C(=O)NCCN2CCN(c3nc(-c4cnc(N)nc4C(F)F)nc(N4CCOCC4)n3)CC2)C1 [Compound 36, 1-acryloyl-N-(2-(4-(4-(2-amino-4-(difluoromethyl)pyrimidin-5-yl)-6-morpholino-1,3,5-triazin-2-yl)piperazin-1-yl)ethyl)azetidine-3-carboxamide] | – | 0.0482 µM | – | – | – | – | – |
| C/C=C/C(=O)N1CC(C(=O)N(C)CC(=O)N2CCN(c3nc(-c4cnc(N)nc4C(F)F)nc(N4CCOCC4)n3)CC2)C1 [Compound 34, (E)-N-(2-(4-(4-(2-amino-4-(difluoromethyl)pyrimidin-5-yl)-6-morpholino-1,3,5-triazin-2-yl)piperazin-1-yl)-2-oxoethyl)-1-(but-2-enoyl)-N-methylazetidine-3-carboxamide] | – | 0.236 µM | – | – | – | – | – |
| C=C(F)C(=O)N1CCC[C@H](COCC(=O)N2CCN(c3nc(-c4cnc(N)nc4C(F)F)nc(N4CCOCC4)n3)CC2)C1 [Compound 12, (S)-1-(3-((2-(4-(4-(2-amino-4-(difluoromethyl)pyrimidin-5-yl)-6-morpholino-1,3,5-triazin-2-yl)piperazin-1-yl)-2-oxoethoxy)methyl)piperidin-1-yl)-2-fluoroprop-2-en-1-one] | – | 0.0154 µM | – | – | – | – | – |
| N#C/C(=C/C1CC1)C(=O)N1CCC[C@@H](COCC(=O)N2CCN(c3nc(-c4cnc(N)nc4C(F)F)nc(N4CCOCC4)n3)CC2)C1 [Compound 8, (R,Z)-2-(3-((2-(4-(4-(2-amino-4-(difluoromethyl)pyrimidin-5-yl)-6-morpholino-1,3,5-triazin-2-yl)piperazin-1-yl)-2-oxoethoxy)methyl)piperidine-1-carbonyl)-3-cyclopropylacrylonitrile] | 0.00278 µM | – | – | – | 3.96e+06 M⁻¹ s⁻¹ | 0.011 s⁻¹ | 0.0116 µM |
| C=CC(=O)N1CCO[C@H](COCC(=O)N2CCN(c3nc(-c4cnc(N)nc4C(F)F)nc(N4CCOC[C@@H]4C)n3)CC2)C1 [Compound 42, 1-((S)-2-((2-(4-(4-(2-amino-4-(difluoromethyl)pyrimidin-5-yl)-6-((S)-3-methylmorpholino)-1,3,5-triazin-2-yl)piperazin-1-yl)-2-oxoethoxy)methyl)morpholino)prop-2-en-1-one] | 0.0071 µM | – | 75400 M⁻¹ s⁻¹ | 0.000537 s⁻¹ | – | – | – |
| C[C@H]1COCCN1c1nc(-c2cnc(N)nc2C(F)F)nc(N2CCN(C(=O)COC[C@H]3CN(C(=O)/C(C#N)=C\C4CC4)CCO3)CC2)n1 [Compound 41, (Z)-2-((R)-2-((2-(4-(4-(2-amino-4-(difluoromethyl)pyrimidin-5-yl)-6-((S)-3-methylmorpholino)-1,3,5-triazin-2-yl)piperazin-1-yl)-2-oxoethoxy)methyl)morpholine-4-carbonyl)-3-cyclopropylacrylonitrile] | 0.0116 µM | – | 1.05e+06 M⁻¹ s⁻¹ | 0.0121 s⁻¹ | – | – | – |
| C=CC(=O)N1CCC[C@H](COCC(=O)N2CCN(c3nc(-c4cnc(N)nc4C(F)F)nc(N4CCOC[C@@H]4C)n3)CC2)C1 [Compound 2, 1-((S)-3-((2-(4-(4-(2-amino-4-(difluoromethyl)pyrimidin-5-yl)-6-((S)-3-methylmorpholino)-1,3,5-triazin-2-yl)piperazin-1-yl)-2-oxoethoxy)methyl)piperidin-1-yl)prop-2-en-1-one] | 0.00278 µM | 0.0288 µM | 94300 M⁻¹ s⁻¹ | 0.000262 s⁻¹ | – | – | – |
| C=CC(=O)N1CCO[C@@H](COCC(=O)N2CCN(c3nc(-c4cnc(N)nc4C(F)F)nc(N4CCOC[C@@H]4C)n3)CC2)C1 [Compound 40, 1-((R)-2-((2-(4-(4-(2-amino-4-(difluoromethyl)pyrimidin-5-yl)-6-((S)-3-methylmorpholino)-1,3,5-triazin-2-yl)piperazin-1-yl)-2-oxoethoxy)methyl)morpholino)prop-2-en-1-one] | 0.00727 µM | – | 224000 M⁻¹ s⁻¹ | 0.00163 s⁻¹ | – | – | – |
| C=CC(=O)N1CC[C@H](COCC(=O)N2CCN(c3nc(-c4cnc(N)nc4C(F)F)nc(N4CCOC[C@@H]4C)n3)CC2)C1 [Compound 3, 1-((S)-3-((2-(4-(4-(2-amino-4-(difluoromethyl)pyrimidin-5-yl)-6-((S)-3-methylmorpholino)-1,3,5-triazin-2-yl)piperazin-1-yl)-2-oxoethoxy)methyl)pyrrolidin-1-yl)prop-2-en-1-one] | – | 0.023 µM | 502000 M⁻¹ s⁻¹ | 0.000432 s⁻¹ | – | – | – |
| C=CC(=O)N1CCC[C@@H](OCCC(=O)N2CCN(c3nc(-c4cnc(N)nc4C(F)F)nc(N4CCOC[C@@H]4C)n3)CC2)C1 [Compound 5, 1-((R)-3-(3-(4-(4-(2-amino-4-(difluoromethyl)pyrimidin-5-yl)-6-((S)-3-methylmorpholino)-1,3,5-triazin-2-yl)piperazin-1-yl)-3-oxopropoxy)piperidin-1-yl)prop-2-en-1-one] | 0.00888 µM | – | – | – | 595000 M⁻¹ s⁻¹ | 0.0052 s⁻¹ | 0.0171 µM |
| N#C/C(=C/C1CC1)C(=O)N1CC[C@H](COCC(=O)N2CCN(c3nc(-c4cnc(N)nc4C(F)F)nc(N4CCOCC4)n3)CC2)C1 [Compound 9, (S,Z)-2-(3-((2-(4-(4-(2-amino-4-(difluoromethyl)pyrimidin-5-yl)-6-morpholino-1,3,5-triazin-2-yl)piperazin-1-yl)-2-oxoethoxy)methyl)pyrrolidine-1-carbonyl)-3-cyclopropylacrylonitrile] | 0.00111 µM | 0.0144 µM | 9.43e+06 M⁻¹ s⁻¹ | 0.0105 s⁻¹ | – | – | – |
| C=CC(=O)N1CCC[C@@H](C(=O)NCCN2CCN(c3nc(-c4cnc(N)nc4C(F)F)nc(N4CCOCC4)n3)CC2)C1 [Compound 19, (R)-1-acryloyl-N-(2-(4-(4-(2-amino-4-(difluoromethyl)pyrimidin-5-yl)-6-morpholino-1,3,5-triazin-2-yl)piperazin-1-yl)ethyl)piperidine-3-carboxamide] | 0.012 µM | 0.0288 µM | 16300 M⁻¹ s⁻¹ | 0.000196 s⁻¹ | – | – | – |
| C=CC(=O)N1CCC[C@@H](COCC(=O)N2CCN(c3nc(-c4cnc(N)nc4C(F)F)nc(N4CCOC[C@@H]4C)n3)CC2)C1 [Compound 1, 1-((R)-3-((2-(4-(4-(2-amino-4-(difluoromethyl)pyrimidin-5-yl)-6-((S)-3-methylmorpholino)-1,3,5-triazin-2-yl)piperazin-1-yl)-2-oxoethoxy)methyl)piperidin-1-yl)prop-2-en-1-one] | 0.0027 µM | – | – | – | 156000 M⁻¹ s⁻¹ | 0.000419 s⁻¹ | 0.0254 µM |
| C=CC(=O)N1CC[C@@H](COCC(=O)N2CCN(c3nc(-c4cnc(N)nc4C(F)F)nc(N4CCOC[C@@H]4C)n3)CC2)C1 [Compound 4, 1-((R)-3-((2-(4-(4-(2-amino-4-(difluoromethyl)pyrimidin-5-yl)-6-((S)-3-methylmorpholino)-1,3,5-triazin-2-yl)piperazin-1-yl)-2-oxoethoxy)methyl)pyrrolidin-1-yl)prop-2-en-1-one] | 0.0117 µM | 0.0357 µM | 325000 M⁻¹ s⁻¹ | 0.00383 s⁻¹ | – | – | – |
| N#C/C(=C/C1CC1)C(=O)N1CC[C@@H](COCC(=O)N2CCN(c3nc(-c4cnc(N)nc4C(F)F)nc(N4CCOCC4)n3)CC2)C1 [Compound 10, (R,Z)-2-(3-((2-(4-(4-(2-amino-4-(difluoromethyl)pyrimidin-5-yl)-6-morpholino-1,3,5-triazin-2-yl)piperazin-1-yl)-2-oxoethoxy)methyl)pyrrolidine-1-carbonyl)-3-cyclopropylacrylonitrile] | 0.00109 µM | 0.0231 µM | 1.02e+07 M⁻¹ s⁻¹ | 0.0111 s⁻¹ | – | – | – |
